Reference: the NIST ThermoML archive (doi:10.1021/je600515j)
Numbers after ± are expanded uncertainties.

Tests used:
[1] = relative permittivity at zero frequency (dimensionless); conditions: 101.33 kPa, Liquid, dielectric analyzer
[2] = relative permittivity at zero frequency (dimensionless); xn = mol fraction of the nth substance listed; conditions: 101 kPa, Liquid, dielectric analyzer

CC(O)CO (stereo unspecified) [1,2-propanediol]
[1]
Conditions | relative permittivity at zero frequency
303.15 K | 27.87 ± 0.56
308.15 K | 27.13 ± 0.54
313.15 K | 26.43 ± 0.53
318.15 K | 25.76 ± 0.52
323.15 K | 25.08 ± 0.5
328.15 K | 24.57 ± 0.49

CC(C)(N)CO [2-amino-2-methylpropan-1-ol]
[1]
Conditions | relative permittivity at zero frequency
303.15 K | 20.59 ± 0.41
308.15 K | 20.11 ± 0.4
313.15 K | 19.69 ± 0.39
318.15 K | 19.27 ± 0.39
323.15 K | 18.88 ± 0.38
328.15 K | 18.37 ± 0.37

CC(C)(N)CO [2-amino-2-methylpropan-1-ol] + O
relative permittivity at zero frequency, [2]
Conditions | 303.15 K | 308.15 K | 313.15 K | 318.15 K | 323.15 K | 328.15 K
x1 = 0.2 | 48.24 ± 0.96 | 47.33 ± 0.95 | 46.43 ± 0.93 | 45.46 ± 0.91 | 44.31 ± 0.89 | 43.13 ± 0.86
x1 = 0.4 | 33.65 ± 0.67 | 32.99 ± 0.66 | 32.33 ± 0.65 | 31.8 ± 0.64 | 31.15 ± 0.62 | 30.11 ± 0.6
x1 = 0.6 | 26.63 ± 0.53 | 26.17 ± 0.52 | 25.65 ± 0.51 | 25.14 ± 0.5 | 24.95 ± 0.5 | 24.37 ± 0.49
x1 = 0.8 | 23.35 ± 0.47 | 22.82 ± 0.46 | 22.28 ± 0.45 | 21.87 ± 0.44 | 21.42 ± 0.43 | 21.03 ± 0.42

CC(O)CNCC(C)O (stereo unspecified) [N-(2-hydroxypropyl)-2-hydroxy-1-propanamine]
[1]
Conditions | relative permittivity at zero frequency
303.15 K | 13.87 ± 0.28
308.15 K | 13.75 ± 0.28
313.15 K | 13.62 ± 0.27
318.15 K | 13.49 ± 0.27
323.15 K | 13.36 ± 0.27
328.15 K | 13.26 ± 0.27

CC(O)CNCC(C)O (stereo unspecified) [N-(2-hydroxypropyl)-2-hydroxy-1-propanamine] + O
relative permittivity at zero frequency, [2]
Conditions | 303.15 K | 308.15 K | 313.15 K | 318.15 K | 323.15 K | 328.15 K
x1 = 0.2 | 41.34 ± 0.83 | 40.27 ± 0.81 | 39.35 ± 0.79 | 38.46 ± 0.77 | 37.74 ± 0.75 | 37.16 ± 0.74
x1 = 0.4 | 24.52 ± 0.49 | 24 ± 0.48 | 23.48 ± 0.47 | 23 ± 0.46 | 22.52 ± 0.45 | 22.19 ± 0.44
x1 = 0.6 | 18.46 ± 0.37 | 18.15 ± 0.36 | 17.84 ± 0.36 | 17.53 ± 0.35 | 17.2 ± 0.34 | 16.97 ± 0.34
x1 = 0.8 | 16.65 ± 0.33 | 16.45 ± 0.33 | 16.26 ± 0.33 | 16.05 ± 0.32 | 15.83 ± 0.32 | 15.66 ± 0.31

CN(CCO)CCO [N-methyldiethanolamine]
[1]
Conditions | relative permittivity at zero frequency
303.15 K | 21.84 ± 0.44
308.15 K | 21.33 ± 0.43
313.15 K | 20.83 ± 0.42
318.15 K | 20.32 ± 0.41
323.15 K | 19.79 ± 0.4
328.15 K | 19.28 ± 0.39

CN(CCO)CCO [N-methyldiethanolamine] + O
relative permittivity at zero frequency, [2]
Conditions | 303.15 K | 308.15 K | 313.15 K | 318.15 K | 323.15 K | 328.15 K
x1 = 0.2 | 48.77 ± 0.98 | 47.54 ± 0.95 | 46.36 ± 0.93 | 45.14 ± 0.9 | 43.98 ± 0.88 | 42.68 ± 0.85
x1 = 0.4 | 33.92 ± 0.68 | 33.09 ± 0.66 | 32.16 ± 0.64 | 31.25 ± 0.63 | 30.37 ± 0.61 | 29.41 ± 0.59
x1 = 0.6 | 26.68 ± 0.53 | 26.03 ± 0.52 | 25.4 ± 0.51 | 24.69 ± 0.49 | 23.96 ± 0.48 | 23.21 ± 0.46
x1 = 0.8 | 23.44 ± 0.47 | 22.86 ± 0.46 | 22.31 ± 0.45 | 21.77 ± 0.44 | 21.15 ± 0.42 | 20.56 ± 0.41

OCCNCCO [diethanolamine]
[1]
Conditions | relative permittivity at zero frequency
303.15 K | 24.69 ± 0.49
308.15 K | 24.3 ± 0.49
313.15 K | 23.86 ± 0.48
318.15 K | 23.28 ± 0.47
323.15 K | 22.63 ± 0.45
328.15 K | 22.13 ± 0.44

OCCNCCO [diethanolamine] + O
relative permittivity at zero frequency, [2]
Conditions | 303.15 K | 308.15 K | 313.15 K | 318.15 K | 323.15 K | 328.15 K
x1 = 0.2 | 52.65 ± 1.1 | 51.53 ± 1 | 49.58 ± 0.99 | 48.31 ± 0.97 | 46.78 ± 0.94 | 45.68 ± 0.91
x1 = 0.4 | 39.11 ± 0.78 | 38.06 ± 0.76 | 36.95 ± 0.74 | 35.81 ± 0.72 | 34.68 ± 0.69 | 33.73 ± 0.67
x1 = 0.6 | 30.57 ± 0.61 | 29.75 ± 0.6 | 28.91 ± 0.58 | 28.07 ± 0.56 | 27.36 ± 0.55 | 26.7 ± 0.53
x1 = 0.8 | 26.95 ± 0.54 | 26.41 ± 0.53 | 25.86 ± 0.52 | 25.42 ± 0.51 | 24.81 ± 0.5 | 24.13 ± 0.48

OCCN(CCO)CCO [triethanolamine]
[1]
Conditions | relative permittivity at zero frequency
303.15 K | 28.11 ± 0.56
308.15 K | 27.41 ± 0.55
313.15 K | 26.73 ± 0.53
318.15 K | 26.07 ± 0.52
323.15 K | 25.41 ± 0.51
328.15 K | 24.8 ± 0.5

OCCN(CCO)CCO [triethanolamine] + O
relative permittivity at zero frequency, [2]
Conditions | 303.15 K | 308.15 K | 313.15 K | 318.15 K | 323.15 K | 328.15 K
x1 = 0.2 | 49.25 ± 0.99 | 48.14 ± 0.96 | 47.23 ± 0.94 | 46.33 ± 0.93 | 45.45 ± 0.91 | 44.63 ± 0.89
x1 = 0.4 | 36.34 ± 0.73 | 35.44 ± 0.71 | 34.53 ± 0.69 | 33.6 ± 0.67 | 32.73 ± 0.65 | 31.93 ± 0.64
x1 = 0.6 | 31.48 ± 0.63 | 30.66 ± 0.61 | 29.85 ± 0.6 | 29.05 ± 0.58 | 28.25 ± 0.57 | 27.51 ± 0.55
x1 = 0.8 | 29.67 ± 0.59 | 28.92 ± 0.58 | 28.17 ± 0.56 | 27.43 ± 0.55 | 26.69 ± 0.53 | 26.04 ± 0.52
